# Measurements: patent US12448369B2 (Edgewise Therapeutics, Inc., priority 2023, dated 2025)
# Key:
# [1] = system: Rabbit Psoas myofibrils (skeletal myosin ATPase); experiment: Myofibril ATPase assay, rabbit psoas (skeletal) myofibrils; format: biochemical; details: rabbit psoas myofibrils
# In short: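 Values are concentrations giving 75% (Y75) or 125% (Y125) of vehicle ATPase activity, from 4-parameter logistic fits of normalized rates. Rates came from linear regression of A340 over 75 min, NADH oxidation coupled to ADP via PK-LDH. Enzyme source: skeletal myofibrils from rabbit psoas, pH 7.0 pCa buffer.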
# [2] = biological target: T1, Porcine ventricle myofibrils (ventricular myosin ATPase) (Sus scrofa, UniProt P79293); experiment: Myofibril ATPase assay, porcine ventricle myofibrils; format: biochemical, porcine (Yucatan minipigs); details: porcine ventricle myofibrils
# T1 construct: Myofibrils from porcine cardiac muscle was isolated from the left ventricle of Yucatan minipigs; tissue Exemplar Genetics; host or cells: left ventricle of Yucatan minipigs, myofibrils prepared in house
# T1 sequence (P79293 whole entry): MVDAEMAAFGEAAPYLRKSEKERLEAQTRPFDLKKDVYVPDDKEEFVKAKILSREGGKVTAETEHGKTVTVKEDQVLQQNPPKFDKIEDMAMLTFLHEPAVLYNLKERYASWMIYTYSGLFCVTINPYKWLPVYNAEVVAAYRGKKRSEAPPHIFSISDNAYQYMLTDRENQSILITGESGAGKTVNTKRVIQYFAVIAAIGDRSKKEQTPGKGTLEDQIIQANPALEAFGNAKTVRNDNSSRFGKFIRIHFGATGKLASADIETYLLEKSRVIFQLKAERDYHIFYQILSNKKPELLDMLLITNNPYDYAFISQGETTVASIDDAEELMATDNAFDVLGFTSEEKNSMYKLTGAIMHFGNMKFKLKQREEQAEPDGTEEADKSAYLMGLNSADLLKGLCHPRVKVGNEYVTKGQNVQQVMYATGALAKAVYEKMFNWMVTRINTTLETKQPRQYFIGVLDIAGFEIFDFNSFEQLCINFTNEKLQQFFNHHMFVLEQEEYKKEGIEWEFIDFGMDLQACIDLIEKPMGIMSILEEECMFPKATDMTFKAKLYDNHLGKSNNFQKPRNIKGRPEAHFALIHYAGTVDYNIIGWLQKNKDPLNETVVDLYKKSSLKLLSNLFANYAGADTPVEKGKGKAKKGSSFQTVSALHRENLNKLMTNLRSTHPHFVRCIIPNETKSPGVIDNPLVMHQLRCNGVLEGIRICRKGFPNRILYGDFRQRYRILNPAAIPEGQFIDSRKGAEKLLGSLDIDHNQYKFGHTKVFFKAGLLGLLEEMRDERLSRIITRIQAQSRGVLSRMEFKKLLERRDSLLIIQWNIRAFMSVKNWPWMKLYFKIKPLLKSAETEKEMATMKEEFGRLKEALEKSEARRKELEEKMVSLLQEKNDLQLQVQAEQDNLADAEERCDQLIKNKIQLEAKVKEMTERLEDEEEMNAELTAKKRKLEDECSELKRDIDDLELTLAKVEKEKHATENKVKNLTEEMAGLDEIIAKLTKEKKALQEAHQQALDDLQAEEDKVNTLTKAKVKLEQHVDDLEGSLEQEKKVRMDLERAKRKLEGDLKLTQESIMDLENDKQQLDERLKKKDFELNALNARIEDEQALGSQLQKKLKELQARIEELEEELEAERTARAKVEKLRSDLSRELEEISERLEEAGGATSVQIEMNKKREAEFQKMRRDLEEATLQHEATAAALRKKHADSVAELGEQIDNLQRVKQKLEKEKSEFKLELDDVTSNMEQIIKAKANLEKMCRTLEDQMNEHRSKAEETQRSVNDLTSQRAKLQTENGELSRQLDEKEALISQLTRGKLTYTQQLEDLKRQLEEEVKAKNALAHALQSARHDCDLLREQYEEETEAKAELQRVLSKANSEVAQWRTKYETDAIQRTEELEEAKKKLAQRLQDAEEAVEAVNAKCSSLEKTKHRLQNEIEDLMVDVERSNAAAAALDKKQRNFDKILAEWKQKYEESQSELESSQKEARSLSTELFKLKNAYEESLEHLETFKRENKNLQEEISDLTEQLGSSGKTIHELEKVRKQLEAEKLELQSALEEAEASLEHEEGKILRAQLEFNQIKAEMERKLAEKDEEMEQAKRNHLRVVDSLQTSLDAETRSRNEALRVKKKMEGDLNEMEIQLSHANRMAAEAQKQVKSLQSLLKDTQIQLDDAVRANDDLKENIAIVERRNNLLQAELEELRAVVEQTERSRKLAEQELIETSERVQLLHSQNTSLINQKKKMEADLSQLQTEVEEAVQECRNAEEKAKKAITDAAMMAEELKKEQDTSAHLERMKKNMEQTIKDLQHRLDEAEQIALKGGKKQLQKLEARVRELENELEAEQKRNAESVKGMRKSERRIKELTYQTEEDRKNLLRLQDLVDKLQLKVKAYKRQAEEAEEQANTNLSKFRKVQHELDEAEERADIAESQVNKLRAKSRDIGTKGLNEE
# In short: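 In a coupled enzyme format, ADP from myofibril ATPase drives NADH oxidation, monitored kinetically at 340 nm for 75 min using minipig ventricle myofibrils. Effective concentrations giving 25% loss or gain of activity relative to vehicle were calculated from 4-parameter fits.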
# [3] = system: Porcine atria myofibrils (atrial myosin ATPase); experiment: Myofibril ATPase assay, porcine atria myofibrils; format: biochemical; details: porcine atria myofibrils
# In short: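 Y75 (25% inhibition) or Y125 (activation) values come from 4-parameter logistic fits of vehicle-normalized rates. Rates are linear-regression slopes of NADH absorbance at 340 nm, read kinetically over 75 min, with ADP coupled to NADH oxidation via pyruvate kinase/lactate dehydrogenase.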
# [4] = Y75 value (75% activity relative to no compound)
SMILES,Skeletal EC25 ([1]; Y75 value) [µM],Ventricular EC25 ([2]; Y75 value) [µM],"Atrial EC25 [3, 4] [µM]",Skeletal EC25 ([1]; Y75 value (no ‡ mark)) [µM],Ventricular EC25 ([2]; Y75 value (no ‡ mark)) [µM],Atrial EC25 ([3]; Y75 value (no ‡ mark)) [µM]
"Cc1nccc2[nH]c(=O)c(CC(=O)N[C@H]3CCc4cc(C#N)cnc43)c(C)c12 (single isomer, unassigned) [compound 234]",20.28,100.00,100.00,,,
"Cc1nccc2[nH]c(=O)c(CC(=O)N[C@@H](C)c3cccnc3)c(C)c12 (single isomer, unassigned) [compound 323]",100.00,100.00,100.00,,,
"C[C@H](NC(=O)[C@H](C)c1cc2nc(C#N)ccc2[nH]c1=O)c1ccc(F)cc1F (single isomer, unassigned) [compound 257]",100.00,100.00,100.00,,,
"Cc1nccc2[nH]c(=O)c(CC(=O)N[C@@H](C)c3ccncc3)c(C)c12 (single isomer, unassigned) [compound 334]",100.00,100.00,100.00,,,
C[C@H](NC(=O)Cc1cc2nc(Cl)ccc2[nH]c1=O)c1ccc(F)cc1F [compound 388],0.67,38.06,1.08,,,
CC(C(=O)N[C@@H](C)c1ccc(F)cc1F)c1cc2c(I)nccc2[nH]c1=O (stereo partly drawn) [compound 362],0.40,100.00,9.38,,,
"Cc1c(CC(=O)N[C@@H](c2ccc(F)cc2F)C(C)(C)O)c(=O)[nH]c2ccnc(C#N)c12 (single isomer, unassigned) [compound 279]",1.29,100.00,78.18,,,
C[C@H](NC(=O)Cc1cc2c(F)cccc2[nH]c1=O)c1ccc(C#N)cn1 [compound 48],,,,0.23,4.14,1.55
"Cc1nc(C#N)cnc1[C@H](C)NC(=O)Cc1c(C)c2c(C#N)c(F)ccc2[nH]c1=O (single isomer, unassigned) [compound 2]",,,,0.02,0.08,0.09
"Cc1c(CC(=O)N[C@H](C)c2ccc(C#N)cc2F)c(=O)[nH]c2ccnc(C#N)c12 (single isomer, unassigned) [compound 282]",0.35,1.16,1.55,,,
C[C@H](NC(=O)Cc1cc2c(OCC(F)F)nccc2[nH]c1=O)c1ccc(F)cc1F [compound 389],0.25,100.00,0.71,,,
"Cc1nccc2[nH]c(=O)c(CC(=O)N[C@@H](C)c3ncc(F)cc3F)c(C)c12 (single isomer, unassigned) [compound 379]",0.36,5.81,2.36,,,
Cc1c(CC(=O)N[C@@H](CO)c2ccc(C#N)cc2F)c(=O)[nH]c2ccc(F)c(C3CC3)c12 [compound 72],,,,0.02,0.34,0.08
Cc1c(CC(=O)N[C@H](C)c2ccc(C#N)cn2)c(=O)[nH]c2ccc(F)c(C3CC3)c12 [compound 23],,,,0.50,1.19,100.00

# Continued, values first:
Skeletal EC25 ([1]; Y75 value) [µM],Ventricular EC25 ([2]; Y75 value) [µM],"Atrial EC25 [3, 4] [µM]",Skeletal EC25 ([1]; Y75 value (no ‡ mark)) [µM],Ventricular EC25 ([2]; Y75 value (no ‡ mark)) [µM],Atrial EC25 ([3]; Y75 value (no ‡ mark)) [µM],SMILES
0.03,100.00,100.00,,,,CCOc1nccc2[nH]c(=O)c(CC(=O)N[C@@H](C)c3ccc(F)cc3F)c(C(F)(F)F)c12 [compound 422]
100.00,100.00,63.47,,,,Cc1nncc2[nH]c(=O)c(CC(=O)N[C@@H](C)c3ncc(C#N)cc3F)cc12 [compound 452]
,,,0.04,0.07,0.04,"Cc1c([C@H](C)C(=O)N[C@H](C)c2ncc(C#N)cc2F)c(=O)[nH]c2ccc(F)c(F)c12 (single isomer, unassigned) [compound 2601]"
,,,0.33,0.33,0.23,"Cc1c(C(F)(F)C(=O)N[C@H](C)c2ncc(C#N)cn2)c(=O)[nH]c2ccc(F)cc12 (single isomer, unassigned) [compound 2594]"
,,,3.82,7.78,59.91,C[C@H](NC(=O)Cc1c(C2CC2)c2cc(C#N)ccc2[nH]c1=O)c1ncc(C#N)cc1F [compound 1152]
,,,100,100.00,100.00,Cc1c(CC(=O)N[C@@H]2COCc3cc(C#N)cnc32)c(=O)[nH]c2ccc(F)cc12 [compound 1056]
,,,8.80,100.00,100.00,"N#Cc1cnc2c(c1)CC[C@@H]2NC(=O)C1(c2cc3c(F)c(F)ccc3[nH]c2=O)CC1 (single isomer, unassigned) [compound 4824]"
,,,5.34,2.51,5.32,C[C@@H](NC(=O)Cc1cc2c(F)cc(F)cc2[nH]c1=O)c1ncc(C#N)cc1F [compound 1137]
,,,100.00,81.97,31.66,"C[C@H](NC(=O)C(F)(F)c1cc2c(F)c(F)ccc2[nH]c1=O)c1cc(C#N)ccn1 (single isomer, unassigned) [compound 2558]"
,,,0.19,1.31,0.23,C[C@H](NC(=O)C1(c2cc3c(F)c(F)ccc3[nH]c2=O)CC1)c1ccc(F)cc1F [compound 4814]
,,,37.46,100.00,100.00,"Cc1c(C2(C(=O)N[C@@H](C)c3nccc(C#N)n3)CC2)c(=O)[nH]c2ccc(F)cc12 (single isomer, unassigned) [compound 4842]"
4.25,52.30,7.21,,,,C[C@H](NC(=O)Cc1c(Cl)c2cnccc2[nH]c1=O)c1ccc(C#N)cn1 [compound 454]
,,,0.28,3.58,0.92,"Cc1c(C(F)(F)C(=O)N[C@H](C)c2ncc(C#N)cn2)c(=O)[nH]c2cccc(C#N)c12 (single isomer, unassigned) [compound 4838]"
,,,100.00,100.00,100.00,C[C@H](NC(=O)Cc1cc2cc(F)ccc2[nH]c1=O)c1ccc(C#N)cn1 [compound 1126]
100.00,100.00,100.00,,,,Cc1nc([C@H](C)NC(=O)Cc2c(C)c3c(C)nccc3[nH]c2=O)ncc1C#N [compound 479]
7.06,44.80,100.00,,,,C[C@H](NC(=O)Cc1cc2nc(Cl)ncc2[nH]c1=O)c1ccc(F)cc1F [compound 390]
,,,100.00,100.00,100.00,"C[C@H](NC(=O)C1(c2cc3c(F)c(F)ccc3[nH]c2=O)CC1)c1nccc(C#N)n1 (single isomer, unassigned) [compound 2506]"
,,,0.02,0.15,0.17,"Cc1c(C(F)(F)C(=O)N[C@@H](C)c2ncc(C#N)cc2F)c(=O)[nH]c2ccc(F)c(C#N)c12 (single isomer, unassigned) [compound 4836]"
,,,0.19,1.23,0.20,"C[C@H](NC(=O)C(F)(F)c1cc2c(F)c(F)ccc2[nH]c1=O)c1ncc(C#N)cn1 (single isomer, unassigned) [compound 2546]"
